Test system: IL-1β
Assay: Plasma (systemic) IL-1β by ELISA after tibial surgery
Assay type: in vivo
Details: wild type mice, minocycline 40 mg/kg i.p., enrofloxacin 10 mg/kg or IL-1Ra 100 mg/kg given prior to surgery, vs surgery alone
Source text: Mice were subjected to an open tibial fracture of the left hind paw with intramedullary fixation in aseptic conditions under general anaesthesia with isoflurane and analgesia with buprenorphineas previously described^18. Other groups of animals were not subjected to any intervention (naïve), or received anesthetic/analgesia alone, or underwent surgery with concurrent administration of minocycline, enrofloxacin, or IL-1 receptor antagonist (IL-1Ra). (For further details please refer to supplemental methods).
IL-6, TNF-α and IL-1β were measured by ELISA^19 (Biosource, CA; Bender Medsystem, CA, respectively). Hippocampal IL-1β was measured by ELISA (Bender Medsystem, CA), as previously described^20. To confirm reliability of dilution linearity and spike recovery cytokine measurement were also performed in mice in which inflammation was induced with i.p. LPS (0111:B4, Invivogen, CA). (For further details please refer to supplemental methods).
Mice were randomly assigned to the following groups: surgery under general anesthesia (S), surgery under general anesthesia plus minocycline (M), surgery under general anesthesia plus enrofloxacin (E), surgery under general anesthesia plus interleukin-1 receptor antagonist (IL-1Ra) (I), surgery in IL1R^−/− mice under general anesthesia (K), general anesthesia without surgery (A), and no intervention (naïve wild-type, or naïve IL1R^−/−). Under aseptic conditions, groups of mice were subjected to an open tibial fracture of the left hind paw with an intramedullary fixation as previously described^2. Briefly, isoflurane (Abbot Laboratories Ltd., Queensborough, Kent, UK) 2.1% in air (1.5 MAC)^3 and buprenorphine (Reckitt Benckiser Healthcare Ltd, Hull, UK) 0.1 mg/kg subcutaneously (sc), were given to provide both surgical anesthesia and extended post-operative analgesia for the surgical intervention and post-surgical recovery. After shaving the overlying skin and disinfecting with chlorhexidine gluconate 0.5% and isopropyl alcohol 70% (PDI, Orangeburg, NY, USA) a fracture of the tibial shaft was created under direct vision. […]

SMILES: CCN1CCN(c2cc3c(cc2F)c(=O)c(C(=O)O)cn3C2CC2)CC1 [enrofloxacin, reference compound]
- Plasma IL-1β after surgery, effect of treatment: exerted no effect on IL-1β plasma concentration
- Plasma IL-1β after surgery, effect of treatment (listed as Enrofloxacin): failed to reduce plasma levels of IL-1β

From patent US12325744B2, “Methods for reducing post-operative cognitive dysfunction (POCD)” (The Kennedy Trust for Rheumatology Research, priority 2010, dated 2025)
